Experiments:
Format in all cases: cell-based
[1] = target: T1, ΔF508-CFTR (Homo sapiens, UniProt P13569, DEL508-508); experiment: hBE equivalent current (Ieq) assay, primary lung epithelial cells homozygous for ΔF508; conditions: compound at 10 uM and VX-809 at 1 uM, relative to VX-809 (1 uM); 24 h treatment
T1 construct: primary lung epithelial cells (hBEs) homozygous for the Cystic Fibrosis-causing ΔF508 mutation; endogenous in cells; host or cells: primary lung epithelial cells (hBEs) homozygous for ΔF508
T1 sequence (P13569 with tags, fused parts or gaps DEL508-508): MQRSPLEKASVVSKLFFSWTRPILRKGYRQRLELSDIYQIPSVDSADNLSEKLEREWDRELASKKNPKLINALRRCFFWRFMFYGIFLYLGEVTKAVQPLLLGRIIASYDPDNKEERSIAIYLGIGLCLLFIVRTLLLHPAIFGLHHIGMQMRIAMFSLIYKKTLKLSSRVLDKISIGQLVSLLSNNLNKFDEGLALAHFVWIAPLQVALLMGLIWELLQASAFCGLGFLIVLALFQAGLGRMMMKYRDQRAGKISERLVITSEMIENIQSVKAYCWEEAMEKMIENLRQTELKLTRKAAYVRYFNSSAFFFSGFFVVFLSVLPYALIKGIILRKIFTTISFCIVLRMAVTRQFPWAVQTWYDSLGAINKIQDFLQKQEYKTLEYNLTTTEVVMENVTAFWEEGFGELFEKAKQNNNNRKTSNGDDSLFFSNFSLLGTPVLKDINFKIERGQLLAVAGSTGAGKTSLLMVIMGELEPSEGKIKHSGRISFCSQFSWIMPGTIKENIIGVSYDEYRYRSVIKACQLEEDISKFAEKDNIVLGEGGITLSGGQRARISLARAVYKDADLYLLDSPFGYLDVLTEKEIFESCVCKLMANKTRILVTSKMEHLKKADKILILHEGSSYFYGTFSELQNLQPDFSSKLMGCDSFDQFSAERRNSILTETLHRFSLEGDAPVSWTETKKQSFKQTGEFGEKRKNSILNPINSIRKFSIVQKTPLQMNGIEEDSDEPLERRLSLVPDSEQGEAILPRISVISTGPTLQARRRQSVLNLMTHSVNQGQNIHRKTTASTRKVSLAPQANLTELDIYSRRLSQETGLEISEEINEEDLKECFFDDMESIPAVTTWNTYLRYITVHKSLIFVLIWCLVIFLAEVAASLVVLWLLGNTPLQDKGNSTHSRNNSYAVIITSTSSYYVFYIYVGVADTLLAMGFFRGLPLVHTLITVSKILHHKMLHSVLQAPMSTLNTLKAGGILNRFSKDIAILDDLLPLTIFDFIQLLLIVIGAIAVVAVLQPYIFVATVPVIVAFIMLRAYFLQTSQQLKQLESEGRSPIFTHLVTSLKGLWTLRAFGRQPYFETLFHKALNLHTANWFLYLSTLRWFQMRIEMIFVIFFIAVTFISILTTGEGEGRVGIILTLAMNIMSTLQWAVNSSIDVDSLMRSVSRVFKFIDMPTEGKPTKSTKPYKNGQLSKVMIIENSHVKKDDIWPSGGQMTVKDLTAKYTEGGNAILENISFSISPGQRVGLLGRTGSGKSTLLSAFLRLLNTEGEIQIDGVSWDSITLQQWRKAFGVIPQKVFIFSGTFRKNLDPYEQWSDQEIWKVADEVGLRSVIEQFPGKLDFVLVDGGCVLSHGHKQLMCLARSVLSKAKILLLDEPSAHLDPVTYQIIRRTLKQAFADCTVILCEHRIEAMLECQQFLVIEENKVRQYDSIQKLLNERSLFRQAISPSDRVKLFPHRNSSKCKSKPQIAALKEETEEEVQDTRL
Description: Primary lung epithelial cells homozygous for the Cystic Fibrosis-causing ΔF508 mutation were differentiated for a minimum of 4 weeks in an air-liquid interface on Costar 24 well HTS filter plates prior to the equivalent current (Ieq) measurements. Cells were apically mucus-washed for 30 minutes 24h prior to treatment with compounds. The basolateral media was removed and replaced with media containing the compound of interest diluted to its final concentration from DMSO stocks. Treated cells were incubated at 37° C. and 5% CO2 for 24 hours. At the end of the treatment period, the media was changed to the Ieq experimental solution for 30 minutes before the experiment and plates are maintained in a CO2-free incubator during this period. The plates containing the cells were then placed in pre-warmed heating blocks at 36° C.±0.5 for 15 minutes before measurements are taken. The transepithelial voltage (VT) and conductance (GT) were measured using a custom 24 channel current clamp (TECC-24) with 24 well electrode manifold. The Ieq assay measurements were made following additions with standardized time periods: • 1. The baseline VT and GT values were measured for approximately 20 minutes. • 2. Benzamil was added to block ENaC for 15 minutes. • 3. Forskolin plus VX-770 (ivacaftor) were added to maximally activate ΔF508-CFTR for 27 minutes. • 4. Bumetanide was added to inhibit the NaK2Cl cotransporter and shut-off secretion of chloride.
The activity data captured was the area under the curve (AUC) for the traces of the equivalent chloride current. The AUC was collected from the time of the forskolin/VX-770 addition until the inhibition by bumetanide addition. Correction in response to compound treatment was scored as the increase in the AUC for compound-treated samples over that of vehicle-treated samples.
The results are shown below in Table 2. ++ indicates activity ≥25% run at 10 uM of VX-809 at 1 uM, + indicates activity 10 to <25% run at 10 uM of VX-809 at 1 uM, ** indicates activity ≥200% of VX-809 (1 uM) with compound at 10 uM and VX-809 at 1 uM; * indicates activity 100-200% of VX-809 (1 uM) with compound at 10 uM and VX-809 at 1 uM. ^## indicates activity ≥200% of VX-809 (3 uM) with compound at 10 uM and VX-809 at 3 uM; ^# indicates activity 100-200% of VX-809 (3 uM) with compound at 10 uM and VX-809 at 3 uM.

[2] = target: T1, ΔF508-CFTR; experiment: Ussing measurements, hBEs homozygous for ΔF508; conditions: compound at 10 uM and VX-809 at 3 uM, relative to VX-809 (3 uM); 24 h treatment
Description: As discussed above, Ussing measurements can be used to measure CFTR activity. In this example, primary lung epithelial cells (hBEs) homozygous for the Cystic Fibrosis-causing ΔF508 mutation were differentiated for a minimum of 4 weeks in an air-liquid interface on SnapWell filter plates prior to the Ussing measurements. Cells were apically mucus-washed for 30 minutes prior to treatment with compounds. The basolateral media was removed and replaced with media containing the compound of interest diluted to its final concentration from DMSO stocks. Treated cells were incubated at 37° C. and 5% CO2 for 24 hours. […] The short-circuit current was measured in voltage clamp-mode (Vhold=0 mV), and the entire assay was conducted at a temperature of 36° C.-36.5° C. Once the voltages stabilized, the chambers were clamped, and data was recorded by pulse readings every 5 seconds. Following baseline current stabilization, the following additions were applied and the changes in current and resistance of the cells was monitored: • 1. […]
The inhibitable current (that current that is blocked by CFTRinh-172) is measured as the specific activity of the ΔF508-CFTR channel, and increases in response to compound in this activity over that observed in vehicle-treated samples are identified as the correction of ΔF508-CFTR function imparted by the compound tested. […]

[3] = target: T2, CFTR in F508/F508del HBEs (Homo sapiens, UniProt P13569, DEL508-508); experiment: Ussing measurements, F508del/F508del HBEs; conditions: genotype F508del/F508del
T2 construct: Activity in F508/F508del HBEs (relative); endogenous in cells; host or cells: primary lung epithelial cells (HBEs), genotype F508/F508del [sic]
T2 sequence (P13569 with tags, fused parts or gaps DEL508-508): as above
Description: As discussed above, Ussing measurements were used to measure CFTR activity. In this method, primary lung epithelial cells (hBEs) with a Cystic fibrosis causing class I mutation were differentiated for a minimum of 4 weeks in an air-liquid interface on SnapWell™ filter plates prior to the Ussing measurements. Cells were apically mucus-washed for 30 minutes prior to treatment with compounds. The basolateral media was removed and replaced with media containing the compound of interest diluted to its final concentration from DMSO or aqueous stocks. Treated cells were incubated at 37° C. and 5% CO2 for 24 hours. At the end of the treatment period, the cells on filters were transferred to the Ussing chamber and equilibrated for 30 minutes. The short-circuit current was measured in voltage clamp-mode (Vhold=0 mV), and the entire assay was conducted at a temperature of 36° C.-36.5° C. Once the voltages stabilized, the chambers were clamped, and data were recorded by pulse readings every 5 seconds. Following baseline current stabilization, the following additions were applied and the changes in current and resistance of the cells were monitored: • 1. Benzamil to the apical chamber to inhibit ENaC sodium channel. • 2. Forskolin to both chambers to activate ΔF508-CFTR by phosphorylation. • 3. Ivacaftor or Genistein to the apical chamber to potentiate ΔF508-CFTR channel opening. • 4. CFTRinh-172 to the apical chamber to inhibit ΔF508-CFTR Cl-conductance.
The forskolin-sensitive current and inhibitable current (that potentiated current that was blocked by CFTRinh-172) were measured as the specific activity of the ΔF508-CFTR channel, and increase in response to compound in this activity over that observed in vehicle-treated samples were identified as the correction of ΔF508-CFTR function imparted by the compound tested.
The results are shown below in Tables 3 and 4. Compound A is 10 uM and VX-809 is 3 uM and ivacaftor is 1 uM.

C[C@@H](O)c1nnc([C@H]2C[C@H](NC(=O)c3cc(-c4ccccc4)no3)C2)o1 [Example 6, N-(trans-3-(5-((R)-1-hydroxyethyl)-1,3,4-oxadiazol-2-yl)cyclobutyl)-3-phenylisoxazole-5-carboxamide]
leq: activity of compound with VX-809, % of VX-809 (AUC of equivalent chloride current) [1]: * (* indicates activity 100-200% of VX-809 (1 uM) with compound at 10 uM and VX-809 at 1 uM) | Ussing: activity of compound with VX-809, % of VX-809 [2]: ## (## indicates activity ≥200% of VX-809 (3 uM) with compound at 10 uM and VX-809 at 3 uM) | Combination with ivacaftor and VX-661, activity ([3]; compound A 10uM + ivacaftor 1uM + VX-661 3 uM, relative activity of 100% = ivacaftor and VX-661): ++++ (++++ indicates activity at 10uM of >150% of the indicated relative activity treatment) | Combination with ivacaftor and lumacaftor, activity ([3]; compound A 10uM + ivacaftor 1uM + lumacaftor 3 uM, relative activity of 100% = ivacaftor and lumacaftor): ++++ (++++ indicates activity at 10uM of >150% of the indicated relative activity treatment) | Stand Alone activity ([3]; compound A 10uM, relative activity of 100% = ivacaftor (1uM) and lumacaftor (3 uM)): + (+ indicates activity at 10uM of 15% to <50% of the indicated relative activity treatment)

Reference: patent US11083709B2, “Compounds, compositions, and methods of increasing CFTR activity” (Proteostasis Therapeutics, Inc., priority 2015, dated 2021)
